Laboratory results: patent US20180250320A1, “COMPOSITIONS AND METHODS FOR TREATING SOLID TUMORS” (THE JOHNS HOPKINS UNIVERSITY, priority 2015, published 2018)
Like-named read-outs stand apart in the source and are kept apart here.

Key:
[1] = tested on: Human lung cancer cell lines H23 and A549; experiment: Expression of anti-viral genes and cancer testis antigens after AZA priming and HDACi treatment; assay type: cell-based; conditions: for expression of anti-viral genes: FIG. 4A; for expression of cancer testis antigens: FIG. 4B
Source text: FIGS. 4A and 4B. […] Human lung cancer cell lines H23 and A549 were primed by treatment with AZA (red line) for 5 days followed by 3-5 days of treatment with the HDACi. For many genes, addition of an HDACi to AZA increases gene expression above levels attained by AZA alone.

[2] = tested on: VEGF-defensin ID8 ovarian cells; experiment: Ascites fluid volume in the ID8 model of ovarian cancer; assay type: in vivo; conditions: mice drained at week 6 after injection; same regimen; vs untreated (Mock) or single agent
Description: Mice were injected with 2.5×10^6VEGF-defensin ID8 ovarian cells i.p. Three days later, mice began treatment with 0.5 mg/kg 5-azacytidine (AZA) for 5 days per week. The next week the mice were treated with either 2 mg/kg MS275 or ITF 5 days a week, and the treatments alternated by week until the end of the experiment. Mice developed ascites fluid by week 4.5, and were drained and the ascites volume was measured. Ascites volume from mice drained at week 6 after injection.

[3] = cited from earlier work
[4] = HDACi in combination with AZA: AZA priming 5 days, then 3-5 days HDACi

## CCN(CC)Cc1ccc2cc(COC(=O)Nc3ccc(C(=O)NO)cc3)ccc2c1.Cl [Givinostat, diethyl-[6-(4-hydroxycarbamoyl-phenylcarbamoyloxymethyl)-naphthalen-2-ylmethyl]-ammonium chloride]
[1]; [4]
  expression of anti-viral genes: increase expression
  expression of cancer testis antigens: increase expression
[1]; HDACi used as single agent
  expression of anti-viral genes: NOT
  expression of cancer testis antigens: NOT

## Nc1ncn([C@@H]2O[C@H](CO)[C@@H](O)[C@H]2O)c(=O)n1 [AZA, 4-amino-1-β-D-ribofuranozyl-s-triazin-2(1H)-one]
[2]
  ascites fluid volume: significantly reduced ascites volume compared to Mock
[3]; 5% Tween 80 in water
  solubility: sparingly soluble
[3]; 5% dextrose in water
  solubility: sparingly soluble
[3]; N-methyl-2-pyrrolidone
  solubility: sparingly soluble
[3]; acetone
  solubility: insoluble
[3]; dimethylsulfoxide (DMSO)
  solubility: soluble
[3]; ethanol/water (50/50)
  solubility: slightly soluble
[3]; ethanol
  solubility: insoluble
[3]; methyl ketone
  solubility: insoluble
[3]; normal saline
  solubility: sparingly soluble
[3]; polyethylene glycol
  solubility: slightly soluble
[3]; propylene glycol
  solubility: slightly soluble
[3]; water-saturated octanol
  solubility: sparingly soluble
[3]; water
  solubility: sparingly soluble

## Nc1ccccc1NC(=O)c1ccc(CNC(=O)OCc2cccnc2)cc1 [Entinostat]
[1]; [4]
  expression of anti-viral genes: increase expression
  expression of cancer testis antigens: increase expression
[1]; HDACi used as single agent
  expression of anti-viral genes: NOT
  expression of cancer testis antigens: NOT
